Measured values from US7514529B2, “Peptide mimotopes of lipooligosaccharide from nontypeable Haemophilus influenzae as vaccines” (The United States of America as represented by the …, priority 2003, dated 2009).

Test system: target rabbit anti-LOS antibody
Assay: Peptide ELISA (NucleoLink strips): synthetic peptides binding the target anti-LOS antibody
Conditions: for Binding reactivity (OD405): 5 μg peptide coupled to strip, 0.4 μg/well target antibody, average of duplicates; for Binding reactivity of synthetic peptides to target anti-LOS antibody (in words): peptide-coated ELISA
Method: Four peptides were synthesized with a spacer (GGGS) at each C-terminus (Genemed Synthesis, Inc., San Francisco, Calif.). Binding reactivity of the synthetic peptides to the target anti-LOS antibody was tested with a peptide ELISA using Nunc NucleoLink™ Strips (Fisher Scientific, Pittsburgh, Pa.). Following the instructions of the product with modifications, the strips were coated covalently with its amino groups to the C-terminal carboxyl groups of the synthetic peptides by a coupling reagent, [1-Ethyl-3-(3-dimethylaminopropyl) carbodiimide HCl] (EDC, Pierce). Briefly, peptides and 0.1 M 1-methyl-imidazole (Meim) (Sigma-Aldrich) at pH 7 were pre-cooled on ice, and a 100 μl of individual peptide solution with 5 μg of peptide in 10 mM MeIm was prepared in a well of strips on ice. This peptide solution (75 μl) was mixed with 25 μl of freshly prepared 0.2 M EDC in 10 mM MeIm in another well of the strips. The strips were sealed and incubated at 50° C. for 5 h. After removing the reaction mixture, the strips were soaked with washing buffer (freshly prepared 0.25% SDS in 0.4 N NaOH and warmed at 50° C.) for 5 min and emptied. This step was performed for three times, followed by another three washings without the 5-min soaking. After removing the washing buffer, the strips was washed thoroughly with deionized water. The following steps were the same as described in the LOS ELISA (Gu et al. 1996 Infect Immun 64:4047). After blocking with 1% BSA in PBS, the target anti-LOS antibody was added in the amount of 0.4 μg/well followed by a goat anti-rabbit IgG alkaline phosphatase conjugate. The binding reactivity of the synthetic peptides to the target anti-LOS antibody was evaluated by OD405 values at 30 min after adding a substrate.

Sequence | Binding reactivity (OD405) | Binding reactivity of synthetic peptides to target anti-LOS antibody (in words)
NMMKYISPPIFL [Peptide 3] | 1.11 | higher binding reactivity
NMMNYIMDPRTH [Peptide 2] | 2.52 | higher binding reactivity
NMMRFTELSTPS [Peptide 4] | 0.99 | higher binding reactivity
NMMRFTSQPPNN [Peptide 1] | 0.40 | did not show good antigenic mimic of the LOS
TLAHHKKPWILR [Peptide 5, control peptide from an unrelated clone, reference compound] | 0.33 | –
